Reference: patent US20210108198A1, “APPLICATION OF COMPOUND OR TRADITIONAL CHINESE MEDICINE EXTRACT IN PREPARATION OF NUCLEIC ACID DELIVERY AGENT AND RELATED PRODUCTS THEREOF” (INSTITUTE OF BASIC MEDICAL SCIENCES CHINESE ACADEMY OF …, priority 2017, published 2021)
Entries after “also recorded” stand apart in the source; their conditions may differ.

Tests used:
A549 cells [1] = experiment: Confocal fluorescence microscopy of nucleic acid delivered by lipid in cells; type: cell-based, human; settings: 4 μl lipid, boiling method; 6 hours of co-incubation
Description: Experimental materials: A549 cells (purchased from the Cell Center of the Chinese Academy of Medical Sciences), PGY-sRNA-6-Cy3 (purchased from Ribobio Biotechnology Co., Ltd.), lipid No. 41, Zeiss LSM780 (purchased from Zeiss, Germany), Alexa Fluor® 488 phalloidin (purchased from Invitrogen, USA), DAPI (purchased from Invitrogen, USA), paraformaldehyde (purchased from sigma, USA).
(§1) Experimental methods: PGY-sRNA-6-FAM was dissolved in 100 μl water, mixed with 4 μl lipid, and prepared by the boiling method. Then the mixture was dropped into A549 cells, and after 6 hours of co-incubation, the samples were washed three times with PBS, fixed with 4% paraformaldehyde, washed three times with PBS, stained with Alexa Fluor® 488 phalloidin for 30 min, washed 3 times with PBS, and stained with DAPI for 5 min, washed with PBS, and then sealed.
as §1, with “method:” for “methods:”, “water, and” for “water,”, “by” for “by the”, “Then,” for “Then”, “PBS washed,” for “washed with PBS,”

A549 cells [2] = experiment: Flow cytometry detection of the efficiency of nucleic acid delivery by lipid; type: cell-based, human; settings: boiling method
Description: Experimental materials: A549 cells (purchased from the Cell Center of the Chinese Academy of Medical Sciences), FAM-sRNA (purchased from Ribobio Biotechnology Co., Ltd.), lipid No. 41, Accuri® C6 instrument (purchased from BD, USA).
Experimental methods: PGY-sRNA-6-FAM was dissolved in 100 μl water, mixed with 4 μl lipid, and prepared by boiling method. Then the mixture was dropped into A549 cells, and after 6 hours of co-incubation, the samples were collected for detection as follows: firstly wash three times with PBS, then digest with trypsin for 3 minutes and remove trypsin, wash with PBS again and then blow down the cells. The detection was performed using Accuri® C6 instrument.
Experimental Method: PGY-sRNA-6-FAM was dissolved in 100 μl water, and mixed with 4 μl lipid, and prepared into lipid-sRNA mixture by boiling method. Then, the mixture was dropped into A549 cells, and after 6 hours of co-incubation, the samples were collected and washed three times with PBS, then digested with trypsin into single cells, washed with re-suspended with PBS and then blown down for Accuri® C6 instrument detection.
Experimental Method: FAM-sRNA was dissolved in 100 μl water, and mixed with 4 μl lipid, prepared by boiling method. Then, the lipid-sRNA mixture was dropped into A549 cells, and after 6 hours of co-incubation, the samples were collected and washed three times with PBS, then digested into single cells with trypsin, re-suspended with PBS and then blown down for Accuri® C6 instrument detection.

[3] = In vivo delivery of single-stranded sRNA by single lipid via gavage (blood, stomach, small intestine, liver); set-up: species or system C57 mice; settings: 10 μl lipid, 1 nmol each sRNA (PGY-sRNA-23/-26/-32), heating method, 6 hours or 12 hours after administration
Excerpt: Tissues sampled: live/stomach/small intestine.

A549 cell = experiment: RT-qPCR detection of nucleic acid delivered by lipid into A549 cells; type: cell-based, human
Description: (§2) 3.1 NCI-N87 cell (gastric cancer cell), MRC-5 cell (lung fibroblast), A549 cell (lung cancer cell) were cultured to logarithmic growth phase, and then plated to a six-well plate at cell density of 1×10^6/2 mL medium/well; MRC-5 cell was cultured in Eagle's MEM medium (MEM, Gibco); A549 cell was cultured in Ham's F-12 medium (HyClone); NCI-N87 cell was cultured in RPMI-1640 medium (HyClone); followed by incubation overnight at 37° C., and the follow-up experiments were performed after the cells were attached to the walls.
4) Lipid nucleic acid mixture: the mixture of lipid and HJT-sRNA-m7 prepared from the step 2 were added into cells and mixed, and the final concentration of RNA was kept at 200 nM.
(§3) 3.3 After co-incubation with the small RNA for 3 hours, the cells were washed 2-3 times with PBS. The cells were harvested with TRIzol lysis buffer, and the total RNA was extracted. The abundance of small RNA that entered cells was detected by RT-qPCR, and the localization of RNA was detected by fluorescence in situ hybridization; protocols of each detection method were as follows:
3.3.1 RT-qPCR Detection of Small RNA (Taqman Probe Method)
(§4) 3.3.2 RT-qPCR Detection of Small RNA (SYBR Green Dye Method)
Mixtures of soybean PC, lipid No. 11 (18:0/18:2) and lipid No. 12 (16:0/18:2), and various small RNA (see below Table 3) were prepared by the reverse evaporation method and then added into A549 cell line (the final concentration of sRNA was 200 nM); the negative control group (control) was directly added with the same concentration of sRNA; the positive control group (RNAimax) was transfected with Lipofectamine RNAimax (transfection reagent 6 μl/well). The abundance of sRNA in the cells was detected by Taqman probe after 3 hours, and the relative expression level of sRNA was calculated by 2-ΔCt method.
3.1.3 After co-incubation with cells for 12-24 hours, the cells were washed twice with PBS. The cells were harvested with TRIzol lysis buffer (purchased from Sigma-Aldrich), and total RNA was extracted. The abundance of HJT-sRNA-m7 that entered the cells was detected by RT-qPCR; the protocols were as follows:
4368813) was used to reverse transcribe sRNA to cDNA by stem-loop method (see, e.g. Real-time quantification of microRNAs by stem-loop RT-PCR, Nucleic Acids Res. 2005 Nov. 27; 33(20):e179, incorporated by reference herein).

A549 cells [4] = experiment: Digital PCR (ddPCR) detection of the efficiency of nucleic acid delivery by lipid; type: cell-based, human
Description: (§5) 2.2 Experimental method: the total cellular RNA was collected and extracted by TRIzol lysis buffer according to the above methods, and reverse transcribed to cDNA using High capacity cRNA Reverse Transcription Kit, and the cDNA from different groups was subject to digital PCR reaction. Refering to the QX200 Droplet Reader and QuantaSoft Software manual for the protocols, the results were analyzed using QuantaSoft software.
as §5, with “method:” for “method: the”, “total” for “total cellular”, “method,” for “methods,”, “subjected” for “subject”, “Refer” for “Refering”, “protocols;” for “protocols,”
(§6) 2.2 Experimental method: Total RNA was collected and extracted by TRIzol lysis buffer according to the above method, and reverse transcribed to cDNA using TaqMan™ MicroRNA Reverse Transcription KitHigh, and the cDNA from different groups was subjected to digital PCR reaction. Refer to the QX200 Droplet Reader and QuantaSoft Software manual for the protocols; the results were analyzed using QuantaSoft software.
as §6, with “reversed” for “reverse transcribed”, “High capacity cRNA” for “TaqMan™ MicroRNA”, “Kit,” for “KitHigh,”

MRC-5 cell = experiment: RT-qPCR detection of nucleic acid delivered by lipid into MRC-5 cells; type: cell-based
Description: as §2, §3, §4
The stem-loop primer used in the reverse transcription process was synthesized by Beijing Tsingke Biotechnology Co., Ltd. (U6 RT primer: […] ATG (SEQ ID NO: 21); HJT-sRNA-m7 RT stem-loop primer: […] AA (SEQ ID NO: 22)).
Both the forward and reverse primers of the amplification reaction were designed and synthesized by Beijing Tsingke Biotechnology Co., Ltd. (U6 F Primer: […] (SEQ ID NO: 23), U6 R Primer: […] (SEQ ID NO: 24), HJT-sRNA-m7 F Primer: […] (SEQ ID NO: 25), HJT-sRNA-m7 R Primer: […] (SEQ ID NO: 26)).
3) The relative expression level was calculated by 2-ΔCt method.
3.1.3 After co-incubation with cells for 12-24 hours, the cells were washed twice with PBS. The cells were harvested with TRIzol lysis buffer (purchased from Sigma-Aldrich), and total RNA was extracted.

[5] = boiling (heating) method, RNA 100 nM, 2.5 μL single lipid, 12 hours
[6] = reverse evaporation method, 6 hours (No. 39: 6 hours, 12 hours)
[7] = boiling (heating) method, RNA 100 nM, 12 hours (No. 37: 3 hours)

Compound	entry of PGY-sRNA-6-Cy3 observed under the confocal microscopy (A549 cells [1])	efficiency of delivering PGY-sRNA-6 single-stranded RNA relative to RNAiMAX (flow cytometry) (A549 cells [2]; 6 hours, FIG. 97)	entry of single-stranded small RNA into mouse blood (RT-qPCR) [3]	delivery of double-stranded HJT-sRNA-m7 by single lipid (real-time PCR) (A549 cell; [5])	delivery effect relative to RNAiMAX (real-time PCR) (A549 cell; double-stranded HJT-sRNA-m7 100 nM, boiling method, 12 hours, FIG. 96)	delivery of double-stranded HJT-sRNA-m7 by single lipid (real-time PCR) (A549 cell; reverse evaporation method, RNA 100 nM, 12 hours)	delivery of HJT-sRNA-m7 dsRNA (ddPCR) (A549 cells [4]; [6])	delivery of HJT-sRNA-m7 dsRNA (ddPCR) (A549 cells [4]; boiling method, 6 hours)	amount of HJT-sRNA-m7 that entered the cells (RT-qPCR) (MRC-5 cell; Example 2-1, FIG. 33, double-stranded 100 nM, boiling method 100° C. 30 min, 24 hours)	delivery of double-stranded HJT-sRNA-m7 by single lipid (real-time PCR) (MRC-5 cell; boiling (heating) method, RNA 100 nM)	delivery of single-stranded HJT-sRNA-m7 by single lipid (real-time PCR) (MRC-5 cell; [7])	efficiency in delivering PGY-sRNA-6 single-stranded RNA (flow cytometry) (A549 cells [2]; PGY-sRNA-6-FAM, 4 μl lipid, 6 hours of co-incubation) [%]	efficiency of nucleic acid delivery by flow cytometry, in words (A549 cells [2]; PGY-sRNA-6-FAM, 6 hours)	delivery of single-stranded HJT-sRNA-m7 by single lipid (real-time PCR) (A549 cell; [7])
CCCCCCCC/C=C\CCCCCCCCCCCCCC(=O)O[C@H](COC(=O)CCCCCCCCCCCCCC)COP(=O)(O)OCCN [No. 64, 1-pentadecanoyl-2-nervonoyl-sn-glycero-3-phosphoethanolamine]	could effectively deliver single-stranded RNA into A549 cells	½	could effectively deliver sRNA single-stranded nucleic acid into mouse blood via oral administration; also recorded: the delivery effect was better than POPC and Lipofectamine RNAiMAX	delivered HJT-sRNA-m7 double-stranded RNA into A549 cells	about 3 times that of RNAiMAX	delivered HJT-sRNA-m7 double-stranded RNA into A549 cells								
CCCCCC/C=C\CCCCCCCCCC(=O)O[C@H](COC(=O)CCCCCCC/C=C\CCCCCC)COP(=O)(O)OCCN [No. 39, (2-aminoethoxy)[(2R)-3-[(9Z)-hexadec-9-enoyloxy]-2-[(11Z)-octadec-11-enoyloxy]propoxy] phosphinic acid]							could effectively deliver HJT-sRNA-m7 dsRNA into A549 cells							
CCCCCC/C=C\CCCCCCCC(=O)O[C@H](COC(=O)CCCCCCCCCCCCCCC)COP(=O)(O)OCCN [No. 38, (2-aminoethoxy)[(2R)-2-[(9Z)-hexadec-9-enoyloxy]-3-(hexadecanoyloxy)propoxy]phosphinic acid]	could effectively deliver double-stranded nucleic acid into A549 cells		could effectively deliver sRNA single-stranded nucleic acid into mouse blood via oral administration; also recorded: the delivery effect was better than POPC and Lipofectamine RNAiMAX	delivered double-stranded RNA into A549 and MRC-5 cells			could effectively deliver HJT-sRNA-m7 dsRNA into A549 cells	could effectively deliver HJT-sRNA-m7 dsRNA into A549 cells	effectively delivered nucleic acids into MRC-5 cells, showing an effect close to the transfection reagent RNAiMAX	delivered double-stranded RNA into A549 and MRC-5 cells; also recorded: about twice that of RNAiMAX	the efficiency of delivery was much higher than that of RNAiMAX	72.5	close to that of the positive control RNAiMAX	the efficiency of delivery was much higher than that of RNAiMAX
